Here are results for 73 compounds from US20020037885A1, “Therapeutic compounds” (priority 1999, published 2002).

Broadly, the melting point is the temperature of the solid-liquid transition. A word on the ED50: it is the dose that gives a 50% effect, or the effect in half of the subjects.

The subject of data set [1] is marble burying behaviour in mice. Nature of the data set: Mouse Marble Burying Assay (BUR). In kind it is in vivo. On the procedure: This assay was carried out essentially according to the procedure described by Treit et al. (1981) Pharmacol Biochem Behav; 15; 619-626.
The results are presented as BUR ED50 (sc). This is the effective dose causing 50% inhibition of burying compared to control mice.

The mark [2] stands for this setting: effective dose causing 50% inhibition of burying compared to control mice.

On to `CC(C)CC(N)c1ccccc1-c1noc2cc(F)ccc12.O=C(O)/C=C/C(=O)O` (stereo not shown), for which the melting point lay in the range of 174 to 184 °C.

On to `C=CCC(N)c1ccccc1-c1ccc(F)cc1.O=C(O)/C=C/C(=O)O` (stereo not shown), for which the melting point was in the range of 201 to 203 °C.

`C#CCC(N)c1ccccc1-c1noc2cc(Cl)ccc12.C#CCC(N)c1ccccc1-c1noc2cc(Cl)ccc12.O=C(O)/C=C/C(=O)O` (single isomer, unassigned; (-)) [13(5), (−)-2-(6-chloro-1,2-benzisoxazol-3-yl)-α-2-propynyl-benzenemethanamine (E)-butenedioate (2:1 salt)] registered a BUR ED50 (SC) in data set [1] (setting [2]) of 0.4 mg/kg.

Regarding `C1=CCC(c2ccccc2-c2noc3ccccc23)NC1` (stereo not shown) [Example 36(11), 2-[2-(1,2-benzisoxazol-3-yl)-phenyl]-1,2,3,6-tetrahydropyridine], the melting point was 242 to 268 °C.

Consider `C=CCC(N)c1ccccc1-c1cccc(Cl)c1C.O=C(O)/C=C/C(=O)O` (stereo not shown), for which the melting point lay in the range of 192 to 196 °C.

`C=CCC(N)c1ccccc1Cc1ccccc1.O=C(O)/C=C/C(=O)O` (stereo not shown) returned a melting point of 181 to 183 °C.

In turn, `C=CCC(N)c1ccccc1-c1ccc(C)c(F)c1.O=C(O)/C=C/C(=O)O` (stereo not shown) registered a melting point of 194 to 196 °C.

`C=CCC(N)c1oc2ccccc2c1-c1noc2ccccc12.O=C(O)/C=C/C(=O)O` (stereo not shown) yielded a melting point of 210 to 216 °C.

The compound `c1ccc(C2CCCN2)c(-c2noc3ccccc23)c1` (stereo not shown) [Example 36(12), 2-[2-(1,2-benzisoxazol-3-yl)-phenyl]-pyrrolidine] yielded a melting point of 253 to 261 °C.

As to `COc1ccccc1CNCc1ccccc1-c1noc2ccccc12.O=C(O)C(=O)O`, the melting point was determined as 184 °C.

For `c1ccc(-c2noc3ccccc23)c(CNCc2ccccc2-c2noc3ccccc23)c1` [Example 22, 2-(1,2-Benzisoxazol-3-yl)-N-[[2-(1,2-benzisoxazol-3-yl)phenyl]methyl]-benzenemethanamine], the melting point is 138 °C.

`C#CCC(N)c1ccccc1-c1noc2ccccc12.O=C(O)/C=C/C(=O)O` (stereo not shown) [Example 13(4)] registered a melting point of 161 to 169 °C.

In turn, `C=CCC(N)c1ccccc1-c1cccs1.O=C(O)/C=C/C(=O)O` (stereo not shown) displayed a melting point of 196 to 197 °C.

Consider `CCCC(N)c1ccccc1-c1noc2ccccc12.Cl` (stereo not shown), for which the melting point lay in the range of 118 to 126 °C.

The compound `Cl.NC(Cc1ccc(F)cc1)c1ccccc1-c1noc2ccccc12` (stereo not drawn) [Example 36, 2-(1,2-Benzisoxazol-3-yl)-α-(4-fluorobenzyl)-benzenemethanamine Hydrochloride.] gave a BUR ED50 (SC) in data set [1] (setting [2]) of 2.8 mg/kg.

`C=CCC(N)c1ccccc1-c1noc2cc(C(F)(F)F)ccc12.O=C(O)/C=C/C(=O)O` (stereo not shown) yielded a melting point of 179 to 186 °C.

Compound `C=CCC(N)c1ccccc1Cc1cccc(OC)c1.O=C(O)/C=C/C(=O)O` (stereo not shown) came in with a melting point of 163 to 165 °C.

`C=CCC(N)c1ccccc1-c1ccc(-c2ccccc2)c(F)c1.O=C(O)/C=C/C(=O)O` (stereo not shown) yielded a melting point of 205 to 208 °C.

Consider `Cl.Cl.c1cncc(CNCc2ccccc2-c2noc3ccccc23)c1`, for which the melting point was 154 °C.

As to `C=CCC(N)c1ccccc1N1C=CC=NC1.O=C(O)/C=C/C(=O)O` (stereo not shown), the melting point is 75 to 77 °C.

With `C=CCC(N)c1ccccc1-c1ccoc1.O=C(O)/C=C/C(=O)O` (stereo not shown), the melting point is 183 to 185 °C.

The compound `C=CC[C@H](N)c1ccc(F)cc1-c1noc2ccccc12.O=C(O)/C=C/C(=O)O` had a melting point of 97 to 108 °C.

As to `C=CCC(N)C1(c2noc3ccccc23)CC=CO1.O=C(O)/C=C/C(=O)O` (stereo not shown), the melting point was in the range of 158 to 165 °C.

On to `C#CCC(N)c1ccccc1-c1noc2cc(Cl)ccc12.Cl` (stereo not shown), for which the melting point lay in the range of 209 to 214 °C.

As for `C=CCC(N)c1ccccc1-c1cnc2ccccc2c1.O=C(O)/C=C/C(=O)O` (stereo not shown), the melting point was 194 to 197 °C.

With `C=CCC(N)c1cccc(-c2noc3ccccc23)c1.O=C(O)/C=C\C(=O)O` (stereo not shown), the melting point was 148 to 150 °C.

`C=CCC(N)c1cc(F)ccc1-c1noc2ccccc12.O=C(O)/C=C/C(=O)O` (stereo not shown) returned a melting point of 176 to 180 °C.

For the compound `C=CC[C@H](N)c1ccccc1-c1noc2cc(F)ccc12.Cl`, the melting point lay within 166 to 174 °C.

Regarding `C=CCC(N)c1ccccc1-c1cc2cc(Cl)ccc2o1.Cl` (stereo not shown), the melting point lay within 226 to 228 °C.

As to `C=CCC(N)c1cc(Cl)ccc1-c1noc2ccccc12.O=C(O)/C=C/C(=O)O` (stereo not shown), the melting point was in the range of 174 to 177 °C.

`C=CCC(N)c1ccccc1-c1ccccc1F.O=C(O)/C=C/C(=O)O` (stereo not shown) returned a melting point of 225 to 226 °C.

With `C=CCC(N)c1ccccc1-c1cccc2ccccc12.Cl` (stereo not drawn) [15 (6), 2-(napth-1-yl)-α-2-propenyl-benzenemethanamine hydrochloride], the “BUR sc ED50(mg/kg)” value in data set [1] (Table 2) was 11.6 mg/kg.

In turn, `C=CCC(N)c1cc(F)ccc1-c1noc2cc(Cl)ccc12.O=C(O)/C=C\C(=O)O` (stereo not shown) showed a melting point of 162 to 164 °C.

In turn, `NC(CCCC(F)(F)F)c1ccccc1-c1noc2ccccc12.O=C(O)/C=C/C(=O)O` (stereo not shown) came in with a melting point of 203 to 210 °C.

For the compound `C=CCC(N)c1ccccc1-c1csc2ccccc12.O=C(O)/C=C\C(=O)O` (stereo not shown), the melting point lay in the range of 185 to 187 °C.

Turning to `C=CC[C@@H](N)c1ccc(F)cc1-c1noc2ccccc12.O=C(O)/C=C/C(=O)O`, the melting point fell in the range of 104 to 109 °C.

In turn, `C#CCC(N)c1ccccc1-c1noc2ccccc12.O=C(O)/C=C/C(=O)O` (stereo not shown) [Example 12(5)] displayed a melting point of 165 to 170 °C.

For `C=CCC(N)c1ccccc1-c1ccc(Cl)c(F)c1.O=C(O)/C=C/C(=O)O` (stereo not shown), the melting point fell in the range of 192 to 194 °C.

`C#CCC(N)c1ccccc1-c1noc2ccccc12.O=C(O)C(=O)O` (stereo not shown) gave a melting point of over 250 °C.

For the compound `C=CCC(N)c1ccccc1-c1cc2ccccc2o1.Cl` (stereo not shown), the melting point fell in the range of 225 to 227 °C.

On to `C=CCC(N)c1ccccc1-c1ccccc1Cl.O=C(O)/C=C/C(=O)O` (stereo not shown), for which the melting point was in the range of 189 to 191 °C.

As to `Cl.NC(c1ccccc1-c1noc2ccccc12)C1CC=CCC1` (stereo not drawn) [Example 37, 2-(1,2-Benzisoxazol-3-yl)-α-(3-cyclohexenyl)-benzenemethanamine Hydrochloride], in data set [1] (Mus musculus, sc, effective dose causing 50% inhibition of burying compared to control mice, read-out: BUR ED50 (SC)), the ED50 was 3.1 mg/kg.

As for `C=CCC(N)c1cc(-c2noc3ccccc23)cs1.O=C(O)/C=C/C(=O)O` (stereo not shown), the melting point lay in the range of 161 to 164 °C.

The compound `CCCCC(N)c1ccccc1-c1noc2cc(Cl)ccc12.Cl` (stereo not shown) gave a melting point of 209 to 214 °C.

As to `C=CCC(N)c1ccc(F)cc1-c1noc2ccc(F)cc12.O=C(O)/C=C/C(=O)O` (stereo not shown), the melting point fell in the range of 164 to 169 °C.

`C=CCC(N)c1ccccc1-c1cc(-c2ccccc2)on1.O=C(O)/C=C/C(=O)O` (stereo not shown) had a melting point of 165 to 180 °C.

In the case of `C=CCC(N)c1ccccc1-c1cc(F)ccc1C.O=C(O)/C=C/C(=O)O` (stereo not shown), the melting point lay within 190 to 192 °C.

On to `C=CCC(N)c1ccccc1-c1noc2cc(F)ccc12.Cl` (stereo not shown), for which the melting point lay within 192 to 195 °C.

In turn, `CNC(Cc1ccccc1)c1ccccc1-c1noc2ccccc12.Cl` (stereo not shown) displayed a melting point of 175 °C.

In turn, `C=CCC(N)c1ccccc1-c1cc2cc(F)ccc2s1.Cl` (stereo not shown) showed a melting point of 104 to 106 °C.

On to `C=CCC(N)c1ccccc1-c1nc2ccccc2o1.O=C(O)/C=C/C(=O)O` (stereo not shown), for which the melting point lay in the range of 202 to 204 °C.

With `C=C(C)CC(N)c1ccccc1-c1noc2ccccc12.Cl` (stereo not shown), the melting point is 170 to 200 °C.

The compound `C=CC[C@@H](N)c1ccccc1-c1noc2cc(F)ccc12.Cl` had a melting point of 148 to 150 °C.

`C=CCC(N)c1ccccc1-c1coc2ccccc12.Cl` (stereo not shown) registered a melting point of 160 to 165 °C.

On to `Cl.NCc1ccccc1-c1noc2ccccc12`, for which the melting point was determined as 233 °C.

For `c1ccc(CNC(Cc2ccccc2)c2ccccc2-c2noc3ccccc23)cc1` (stereo not drawn) [Example 16(2), α-[2-(1,2-benzisoxazol-3-yl)phenyl]-N-benzyl-benzeneethanamine], the melting point is 153 °C.

`CC(C)=CCC(N)c1ccccc1-c1noc2ccccc12.O=C(O)/C=C\C(=O)O` (stereo not shown) registered a melting point of 132 to 135 °C.

`CN(C)Cc1ccccc1-c1noc2ccccc12.Cl` displayed a melting point of 190 °C.

In turn, `C=CCC(N)c1ccccc1-c1ccccc1OC.Cl` (stereo not shown) gave a melting point of 236 to 240 °C.

As to `C=CCNCc1ccccc1-c1noc2ccccc12.Cl`, the melting point was 176 °C.

In the case of `C=CCC(N)c1ccccc1-c1cc(Cl)ccc1C.O=C(O)/C=C/C(=O)O` (stereo not shown), the melting point fell in the range of 179 to 184 °C.

Compound `C=CCC(N)c1ccccc1-c1cc(C)on1.O=C(O)/C=C\C(=O)O` (stereo not shown) came in with a melting point of 130 to 138 °C.

The compound `C=CCC(N)c1ccccc1-c1nc2ccccc2s1.Cl` (stereo not shown) yielded a melting point of 240 to 242 °C.

`C=CCC(N)c1cc(F)ccc1-c1noc2ccc(F)cc12.O=C(O)/C=C/C(=O)O` (stereo not shown) came in with a melting point of 168 to 173 °C.

Consider `C=CCC(N)C1(c2noc3ccccc23)CC=CS1.O=C(O)/C=C/C(=O)O` (stereo not shown), for which the melting point is 173 to 178 °C.

Take `C=CCC(N)c1ccccc1-c1ccon1.O=C(O)/C=C/C(=O)O` (stereo not shown): the melting point was in the range of 150 to 175 °C.

In the case of `C=CCC(N)c1ccc(-c2noc3ccccc23)s1.O=C(O)/C=C/C(=O)O` (stereo not shown), the melting point is 182 to 189 °C.

Compound `C=CCC(N)c1ccccc1-c1ccc(C)cc1.O=C(O)/C=C/C(=O)O` (stereo not shown) had a melting point of 198 to 200 °C.

`C=CC[C@@H](N)c1cc(F)ccc1-c1noc2ccccc12.O=C(O)/C=C/C(=O)O` registered a melting point of 171 to 173 °C.

`CNCc1ccccc1-c1noc2ccccc12.Cl` returned a melting point of 230 °C.

For `C=CCC(N)c1ccccc1-c1ccc(C)cc1F.O=C(O)/C=C/C(=O)O` (stereo not shown), the melting point lay in the range of 209 to 211 °C.

`C=CCC(N)c1ccccc1Cc1ccccc1OC.O=C(O)/C=C/C(=O)O` (stereo not shown): the melting point was in the range of 172 to 174 °C.

`C=CCC(N)c1ccccc1-c1cc2ccccc2s1.Cl` (stereo not shown) gave a melting point of 106 to 108 °C.
